Laboratory results published in patent US11466054B2, “Inhibitors of metastasis” (BIOMARCK PHARMACEUTICALS LTD., priority 2013, dated 2022).
Where no end group is shown, it is not given here. The star is where a group is joined. Myristoyl = CCCCCCCCCCCCCC(=O)*

What was measured:
[1] = tested on: CL1-5 cells; test: Transwell migration assay, CL1-5 cells pretreated with peptide; type: cell-based, human; conditions: 12 hours; for cell number: control approximately 105;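 for migration index: index equals control cell count divided by treated cell count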
Protocol: CL1-5 cells, an aggressively metastatic cell line derived from a human adenocarcinoma, were cultured in RPMI 1640 media with 10% FBS, 37° C. at 95% […]/5% CO2 until ready for use. Transwell plates (24-well, 8-um pore size; Costar, Cambridge, Mass., USA) were used to conduct the migration assay. The lower chambers of the Transwell plates were filled with 600 μl of basal media containing 10% FBS. The cells (1×10^5) were pretreated with 50 or 100 μM of the indicated test peptide for 30 min, and then suspended in 100 μl of basal media containing 1% BSA and added to the upper chamber, and the cells then were incubated at 37° C. for 12 hr. The cells on the upper surface of the filters were removed using cotton swabs, and the cells that migrated to the lower surface of the filters were washed, fixed, and stained with hematoxylin and counted under the microscope. The percent change in migration was determined by counting the number of cells that migrated to the lower surface of the filters. At least 3 separate microscopic fields were counted per membrane (n=4).
Primary CL1-5 cells originated from human adenocarcinoma lung cancer Transwell plates with 24-wells, 8-μ pore size (Costar, Cambridge, Mass., USA) were used to conduct the migration assay. The lower chambers of the transwell plates were filled with 600 μL of basal media containing 10% FBS. The cells (1-2×10^5) were suspended in 100 μL of basal media containing 1% BSA. The test peptide at desired concentration was added to the upper chamber directly or after preincubation with cancer cells. The plates were then incubated at 37° C. for 12 hours. The cells on the upper surface of the filters were removed using cotton swabs. The cells that migrated to the lower surface of the filters were washed, fixed, and stained with hematoxylin and counted under the microscope. At least five separate microscopic fields are counted per membrane (n=3). The percent change in migration was determined by counting the number of cells that migrated to the lower surface of the filters.
The count means the actual number of cells which migrated to the lower chamber and counted by a light microscope at 40× magnification, presented as the mean number of cells in 10 randomly chosen fields for each treatment.
The “index” was calculated by dividing the number of cells that migrated in the presence of peptides by the number of cells that migrated randomly (control group). […]. This calculation can reflect the extent that the migration of cells was blocked by 30 minute pretreatment with MANS-related peptides.

[2] = tested on: PC-9 cells; test: Orthotopic lung injection xenograph model, PC-9 cells in nude mice; type: in vivo; conditions: 50 nmoles i.p. once every three days, 25 days; for No. of Metastatic Lung Tumors Mean ± SE (L't): left lung; for No. of Metastatic Lung Tumors Mean ± SE (R't): right lung; for Tumor Size (mm) Mean ± SE: tumor at site of injection, cells pretreated 100 μM 4 hours
Protocol: The metastatic activity of cancer cells in vivo after treatment with MANS peptide or BIO-11006 was assessed in the orthotopic lung injection xenograph model. After pretreatment with either PBS, or PBS+MANS, BIO-11006 (SEQ ID NO: 106), or the control RNS peptide at 100 μM for 4 hours, PC-9 cells were injected into the left lobe of the lung of nude mice. Seven days later, these mice were given systemic treatment with either PBS only (Con), RNS (additional control peptide), MANS or BIO-11006 at 50 nmoles per intraperitoneal injection once every three days. At 25 days (6 injections) post-seeding of these tumor cells, mice were sacrificed and the number of metastasized tumor nodules in the contralateral lung and other organs was counted.

[3] = tested on: A549; test: Transwell migration assay, A549 cells; type: cell-based, human; conditions: 12 hr; for cell numbers in comparison to control, RNS peptide and MANS peptide: A549, 25 μm; for cell numbers in comparison to control, RNS peptide and MANS peptide / migrated cell numbers relative to control and to RNS peptide: FIG. 11; for migration index numbers relative to control and to RNS peptide / migrated cell numbers relative to control and to RNS peptide: A549, 50 μm
Protocol: The human adenocarcinoma-derived alveolar epithelial cell line A549 (an invasive cell line) was obtained from the American Type Culture Collection (ATCC) and was cultured in RPMI-1640 supplemented with 10% fetal bovine serum and 100 U/ml penicillin/streptomycin, in 75 cm^2 tissue culture flasks. The cells reached confluence by the third day of culture at 37° C. in an atmosphere of 95% air and 5% CO2 and were maintained by serial passage.
The test peptides (MANS, RNS, BIO-11006, BIO-11000, BIO-11002, BIO-91200, and BIO-10901) were dissolved in PBS at a pH of 7.0; slow vortex mixing for about two hours aided solubility.
Transwell plates (24-well, […]; Costar, Cambridge, Mass., USA) were used to conduct the migration assay. The lower chambers of the transwell plates were filled with 600 μl of basal medium containing 10% FBS. The cells (1×10^5) were suspended in 100 μl of basal medium containing 1% BSA and added to the upper chamber, and the plates incubated at 37° C. with 5% CO2 for 12 hr in PBS (control), or the indicated test peptides at 10, 25 or 50 μM. The cells on the upper surface of the filters were removed using cotton swabs. The cells that migrated to the lower surface of the filters were washed, fixed, and stained with hematoxylin and counted under the microscope. The percent change in migration is determined by counting the number of cells that migrated to the lower surface of the filters. At least four separate microscopic fields are counted per membrane, with a total of three replicate experiments at each concentration. The statistics software “Prizm” was used for data analysis.

[4] = tested on: A549 cells; test: Anti-metastatic efficacy in SCID mice given A549 cells via the tail vein; type: in vivo; conditions: Day 53; for No. of metastatic nodules in lungs Mean ± SEM: aerosol 100 μM every other day for 7 weeks
Protocol: Female NOD.CB17-Prkdc^scid/NCrHsd, Mus musculus mice (Harlan, The Netherlands), housed in individually ventilated cages, were randomized into six groups of eight mice each. A549 cells (2.5×10^6) were injected into the mice via the tail vein. The control group received aerosolized vehicle PBS; while the groups 2 and 3 received the aerosolized test compound BIO-11006 either from −1 day before the cancer cells injection (group 2) or from +3 days after the cancer cell injection (group 3) on every other day for 7 weeks via nebulizer (Aeroneb Lab). Groups 4 and 5 received the aerosolized test compound MANS peptide either from −1 day before the cancer cell line injection (group 4) or from +3 days after the cell line injection (group 5) on every other day for 7 weeks via a nebulizer (Aeroneb Lab). For aerosol delivery, solution of each test compound (100 μM) was prepared in PBS, pH 7.0. For each treatment, 5 mL of test compound solution was aerosolized over 30 minutes into a chamber containing four mice at a time. The mice were monitored for body weight every other day for 7 weeks.
One group of mice (n=7) served as normal control. These were untreated naïve mice used to monitor the health status of mice during the study period. All animals from all groups were sacrificed on Day 53. FIG. 15 compares number of metastatic nodules in lungs after respective administration of BIO-11006 and MANS peptide on Day 53 following A549 cell injection. […] There were few focal tumor nodules in ⅞ of mice treated with BIO-11006 peptide starting at either Day −1 or Day +3 relative to A549 cell injection.

[5] = CL1-5, 50 μmolar pretreatment, FIG. 9
[6] = CL1-5, 50 μmolar pretreatment, FIG. 9, control=1.0
[7] = CL1-5, 50 μmolar, FIG. 8A, control=1, higher value signifies less migration
[8] = CL1-5, 100 μmolar pretreatment, FIG. 10
[9] = CL1-5, 100 μmolar pretreatment, FIG. 10, control=1.0
[10] = CL1-5, 100 μmolar, FIG. 8B, control=1, higher value signifies less migration
[11] = CL1-5, pretreatment at 50 μmolar, FIG. 7A
[12] = CL1-5, pretreatment at 100 μmolar, FIG. 7B

Row | Substance | cell number [1, 5] | migration index [1, 6] | migration index [1, 7] | cell number [1, 8] | migration index [1, 9] | migration index [1, 10] | migrated cell numbers [1, 11] | migrated cell numbers [1, 12] | Metastases (affected mice/total mice) Diaphragm [2] | Metastases (affected mice/total mice) Heart [2] | Metastases (affected mice/total mice) Intestines [2] | Metastases (affected mice/total mice) Spleen [2] | No. of Metastatic Lung Tumors Mean ± SE (L't) [2] | No. of Metastatic Lung Tumors Mean ± SE (R't) [2] | Tumor Size (mm) Mean ± SE [2] | cell numbers in comparison to control, RNS peptide and MANS peptide [3] | migration index numbers relative to control and to RNS peptide [3] | migrated cell numbers relative to control and to RNS peptide [3] | further results
1 | GTAPAAEGAGAEVKRASAEAKQAF (Myristoyl-GTAPAAEGAGAEVKRASAEAKQAF) [RNS peptide, reference compound] | approximately 90 | approximately 1.3 | approximately 1.1 | approximately 95 | approximately 1.2 | approximately 1 | approximately 95 | approximately 90 | 3/4 | 3/4 | 1/4 | 2/4 | 1.00 ± 0.40; | 5.75 ± 2.01 | 1.72 ± 0.41 mm |  |  |  | 
2 | N-myristoyl-GAQFSKTAAK-NH2 (Myristoyl-GAQFSKTAAK-NH2; SMILES CCCCCCCCCCCCCC(=O)NCC(=O)N[C@@H](C)C(=O)N[C@@H](CCC(N)=O)C(=O)N[C@@H](Cc1ccccc1)C(=O)N[C@@H](CO)C(=O)N[C@@H](CCCCN)C(=O)N[C@H](C(=O)N[C@@H](C)C(=O)N[C@@H](C)C(=O)N[C@@H](CCCCN)C(N)=O)[C@@H](C)O) [BIO-11002] |  |  | approximately 2.7 |  |  | approximately 3.8 | approximately 50 | approximately 25 |  |  |  |  |  |  |  | significantly reduced cell numbers | increased migration index numbers | decreased migrated cell numbers | 
3 | N-myristoyl-GAQFSKTAAKGEAAAERPGEAAVA (Myristoyl-GAQFSKTAAKGEAAAERPGEAAVA; listed as Homo sapiens) [MANS peptide] | approximately 45 | approximately 2.5 | approximately 2.5 | approximately 35 | approximately 3.5 | approximately 4.3 | approximately 40 | approximately 20 | 0/4 | 0/4 | 0/4 | 0/4 | 0; 0 | 0; 0 | 1.48 ± 0.54 mm |  | increased migration index numbers | decreased migrated cell numbers | animals with few focal tumor nodules ([4]; +3 Day treatment group): Few focal tumor nodules in 7/8; distant metastasis ([4]; +3 Day treatment group): No distant metastasis; No. of metastatic nodules in lungs Mean ± SEM ([4]; +3 Day treatment group): 13 ± 4; animals with few focal tumor nodules ([4]; −1 Day treatment group): Few focal tumor nodules in 4/8; distant metastasis ([4]; −1 Day treatment group): No distant metastasis; No. of metastatic nodules in lungs Mean ± SEM ([4]; −1 Day treatment group): 22 ± 7
4 | N-myristoyl-GAQFSKTAAK (Myristoyl-GAQFSKTAAK; listed as Homo sapiens) [BIO-11000] | approximately 70 | approximately 1.5 |  | approximately 50 | approximately 2.3 |  |  |  |  |  |  |  |  |  |  |  | increased migration index numbers | decreased migrated cell numbers | 
5 | N-myristoyl-AKGE (Myristoyl-AKGE; listed as Homo sapiens) [BIO-91200] |  |  | approximately 1.7 | approximately 55 | approximately 2.1 | approximately 2.4 | approximately 65 | approximately 40 |  |  |  |  |  |  |  | significantly reduced cell numbers | increased migration index numbers | decreased migrated cell numbers | 
6 | N-acetyl-GAQFSKTAA (Ac-GAQFSKTAA; listed as Homo sapiens) [BIO-10901] |  |  | approximately 1.75 |  |  | approximately 2.7 | approximately 60 | approximately 35 |  |  |  |  |  |  |  |  | increased migration index numbers | decreased migrated cell numbers | 
